One series has as its system X4-tropic HIV-1 NL4-3. The following applies: read-out: IC50 NL4-3; P4-CCR5 cells, HIV-1 NL4-3, peptide 2 h before infection, readout three days after infection. Summed up: (§1)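 P4-CCR5 cells (CD4, CCR5, CXCR4, HIV-1 promoter-driven β-galactosidase) pretreated 2 h with peptide, then infected with virus containing 1 ng p24 antigen and incubated overnight. Cells washed and cultured without peptide; three days post-infection infectivity read by chemiluminescent β-galactosidase assay, in quintuplicate.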

The subject of the next series is HIV-1 NL4-3 DTV. The following applies: read-out: IC50 DTV, P4-CCR5 cells, peptide 2 h before infection, readout three days after infection. An outline of the steps:
as §1

For series [1], the target named is T1, synthetic fusion peptide of HIV gp41 (Human immunodeficiency virus type 1 group M subtype B, UniProt P04578).
T1 construct: The fusion peptide is the very amino-terminal part of gp41 consisting of about 30 amino acid residues
The series is described as follows: Inhibition of fusion peptide-induced hemolysis. Type of series: cell-based. The following applies: peptides at 1000, 100 and 10 μM preincubated with 100 μM fusion peptide, human erythrocytes, hemoglobin release. The procedure:
The synthetic fusion peptide of HIV gp41 causes concentration-dependent hemolysis which can be measured by hemoglobin released by erythrocytes.
Peptides and any other substance binding to the fusion peptide impair its potency to lyse erythrocytes by changing its structural properties. The inhibition of fusion peptide induced hemolysis was tested as follows: Blood from healthy donors was collected in citrate monovettes and the erythrocytes were extracted by a standard centrifugation and washing protocol known to the skilled person. The final erythrocyte-containing pellett was diluted 1:100 with phosphate-saline buffer. To the peptides (10, 100, or 1000 equivalents) 20 μl of a 100 μM fusion peptide solution in 10% DMSO were added and the solution was diluted to 100 μl with phosphate-buffered saline. A 60 min incubation at 37° C. was carried out. After the preincubation the samples were transferred to 96-well plates and 100 μl of the erythrocyte suspension were added and incubated for 60 min at 37° C. […] The 96-well plate is centrifuged 5 min at 2800 rpm and of the supernatant fluid 150 μl were transferred to a flat-bottom microtiter plate, and the absorbance was measured at 450 nm. The percentage hemolysis was calculated by: [(A450 of the peptide treated sample—A450 of buffer treated sample)/(A450 of Tween-20 treated sample—A450 of buffer treated sample)]×100%.

For series [2] the following is noted: dog, plasma.
Procedure: (§2) Plasma was spiked resulting in concentrations of 40 μg/ml and stored at 37° C. At time points 0, 15, 30, 45, 60, 120, 180, 240 and 300 min samples of 20 μl were taken. The plasma was immediately mixed for precipitation with the two-fold volume of acetonitrile containing 0.15% (w/v) n-nonyl-β-D-glucopyranoside. Following centrifugation the supernatants were mixed with the two-fold volume of 0.1% (v/v) trifluroacetic acid. Twenty μl of these solutions were analyzed by LC-MS. Chromatography was performed using a gradient with the following eluents: eluent A: water containing 0.06% trifluroacetic acid (v/v), eluent B: acetonitrile/water 80:20 (v/v; with 0.05% trifluoroacetic acid; v/v). A C18 precolumn was used in combination with a C18 separation column (300 Å, 5 μm, 150×1 mm inner diameter) at a flow rate of 30 μl/min. HPLC eluates were ionized by the electrospray technique of a LCQ classic mass spectrometer. Areas of the detected peaks of the peptides of the present invention were measured and used for quantification by external calibration. The calibration curve was linear over a range from 0.5 μg/ml to 250 μg/ml plasma. Half life—defined as the period for a concentration decrease to 50% of the initial concentration—was calculated from the slope of an extrapolated curve plotting the relative peptide concentration at a given time point (logarithm scale) against the incubation time. These experiments allowed the quantitative analysis of peptide concentration in plasma.
The conditions of series [3]: rat, plasma.
Procedure: as §2
The conditions of series [4]: cynomolgus monkey, plasma.
Procedure: as §2
The conditions of series [5]: human, plasma.
Procedure: as §2
The target in series [6] is gp41 of HIV-1 NL4-3 DTV (HIV-1 NL4-3 DTV). The series is described as follows: cell-based or functional assay.
In series [7] the target is gp41 of HIV-1 NL4-3 (HIV-1 NL4-3). The series is described as follows: cell-based or functional assay.

Several values for one entry are separate records, joined by “and”; a condition that tells them apart may be missing. Identical values can stand only once. Like-named read-outs stand apart in the source and are kept apart here. Positions of bridges follow the written chain, without caps; N, C: chain ends. Non-standard residues stand in square brackets, D forms with d. Residues, ends and D or L forms follow the SMILES beside them. ξ: configuration not given here. Oic(3aξ,7aξ) = O=C(O)[C@@H]1CC2CCCCC2N1; Tic = O=C(O)[C@@H]1Cc2ccccc2CN1; dTic = O=C(O)[C@H]1Cc2ccccc2CN1; NMeL = CN[C@@H](CC(C)C)C(=O)O; AEEA = NCCOCCOCC(=O)O Bounds are passed on as bounds.

Data on twelve compounds can be found in patent US7655629B2, “Peptides and their use for the treatment of HIV infections” (priority 2002, dated 2010).

As a reminder, the IC50 is the point on the concentration scale where inhibition reaches its midpoint. For orientation: half-life means the time in which the quantity being followed falls by half. Read a high half-life as slow loss.

Regarding `CC[C@H](C)[C@H](NC(=O)[C@H](C)NC(=O)[C@H](CCC(=O)O)NC(=O)[C@@H](N)CC(C)C)C(=O)N1CCC[C@H]1C(=O)N[C@@H](CCSC)C(=O)N[C@@H](CO)C(=O)N[C@H](C(=O)N1CCC[C@H]1C(=O)N1CCC[C@@H]1C(=O)N[C@@H](CCC(=O)O)C(=O)N[C@H](C(=O)N[C@@H](C)C(=O)N[C@@H](Cc1ccccc1)C(=O)N[C@@H](CC(N)=O)C(=O)N[C@@H](CCCCN)C(=O)N1C2CCCCC2C[C@H]1C(=O)N[C@@H](Cc1ccccc1)C(=O)N[C@H](C(=O)N[C@@H](Cc1ccccc1)C(=O)O)C(C)C)C(C)C)[C@@H](C)CC` (stereo partly drawn) [VIR-269, LEAIPMSIPpEVAFNK(Oic)FVF] (H-LEAIPMSIP[dP]EVAFNK[Oic(3aξ,7aξ)]FVF-OH), the IC50 in the series on X4-tropic HIV-1 NL4-3 stood at 2610 nM; in the series with HIV-1 NL4-3 DTV, 900 nM. The “inhibition of fusion peptide-induced hemolysis” value (shortened to “inhibition”) in series [1] is given as “Dose dependent inhibition”.

For the compound `CC[C@H](C)[C@H](NC(=O)[C@H](CCCCN)NC(=O)[C@H](CCC(=O)O)NC(=O)[C@@H](N)CC(C)C)C(=O)N1CCC[C@H]1C(=O)N[C@@H](CCSC)C(=O)N[C@@H](CO)C(=O)N[C@H](C(=O)N1CCC[C@H]1C(=O)N1CCC[C@@H]1C(=O)N[C@@H](CCC(=O)O)C(=O)N[C@H](C(=O)N1Cc2ccccc2C[C@@H]1C(=O)N[C@@H](Cc1ccccc1)C(=O)N[C@@H](CC(N)=O)C(=O)N[C@@H](CCCCN)C(=O)N1CCC[C@H]1C(=O)N[C@@H](Cc1ccccc1)C(=O)N[C@H](C(=O)N[C@@H](Cc1ccccc1)C(=O)O)C(C)C)C(C)C)[C@@H](C)CC` [VIR-454, LEKIPMSIPpEV(D-Tic)FNKPFVF] (H-LEKIPMSIP[dP]EV[dTic]FNKPFVF-OH), the IC50 in the series with X4-tropic HIV-1 NL4-3 was determined as 464 nM; in the series on HIV-1 NL4-3 DTV it was 1090 nM. For the same compound, the half-life in series [2] was 15.6 h; in series [3], 0.2 h; in series [4], 4.4 h; in [5], 4.4 h.

With `CC[C@H](C)[C@H](NC(=O)[C@H](CCCCN)NC(=O)[C@H](CCC(=O)O)NC(=O)[C@@H](N)CC(C)C)C(=O)N1CCC[C@H]1C(=O)N[C@@H](CCSC)C(=O)N[C@@H](CO)C(=O)N[C@H](C(=O)N1CCC[C@H]1C(=O)N1CCC[C@@H]1C(=O)N[C@@H](CCC(=O)O)C(=O)N[C@H](C(=O)N1Cc2ccccc2C[C@H]1C(=O)N[C@@H](Cc1ccccc1)C(=O)N[C@@H](CC(N)=O)C(=O)N[C@@H](CCCCN)C(=O)N1CCC[C@H]1C(=O)N[C@@H](Cc1ccccc1)C(=O)N[C@H](C(=O)N[C@@H](Cc1ccccc1)C(=O)O)C(C)C)C(C)C)[C@@H](C)CC` [VIR-455, LEKIPMSIPpEV(L-Tic)FNKPFVF] (H-LEKIPMSIP[dP]EV[Tic]FNKPFVF-OH), the half-inhibitory concentration (IC50) was found to be 134 nM in the series with X4-tropic HIV-1 NL4-3 and 353 nM in the series on HIV-1 NL4-3 DTV. Further, the half-life is 8.6 h in [2], 0.3 h in series [3], 6.8 h in series [4] and 5.8 h in [5].

As to `CC[C@H](C)[C@H](NC(=O)[C@@H]1CCCN1C(=O)[C@@H](NC(=O)[C@H](CCCCN)NC(=O)[C@H](CCC(=O)O)NC(=O)[C@@H](N)CC(C)C)[C@@H](C)CC)C(=O)NCC(=O)N[C@H](C(=O)N1CCC[C@H]1C(=O)N1CCC[C@@H]1C(=O)N[C@@H](CCC(=O)O)C(=O)N[C@H](C(=O)N1Cc2ccccc2C[C@@H]1C(=O)N[C@@H](Cc1ccccc1)C(=O)N[C@@H](CC(N)=O)C(=O)N[C@@H](CCCCN)C(=O)N1CCC[C@H]1C(=O)N[C@@H](Cc1ccccc1)C(=O)N[C@H](C(=O)N[C@@H](Cc1ccccc1)C(=O)O)C(C)C)C(C)C)[C@@H](C)CC` [VIR-483, LEKIPIGIPpEV(D-Tic)FNKPFVF] (H-LEKIPIGIP[dP]EV[dTic]FNKPFVF-OH), the half-maximal inhibitory concentration (IC50) with X4-tropic HIV-1 NL4-3 turned out to be 765 nM; with HIV-1 NL4-3 DTV it was 866 nM. Besides, the half-life in series [2] is 6.2 h; in series [3], 0.2 h; in series [4], 2.2 h; in series [5], 2.6 h.

On to `CC[C@H](C)[C@H](NC(=O)[C@@H]1CCCN1C(=O)[C@@H](NC(=O)[C@H](CCCCN)NC(=O)[C@H](CCC(=O)O)NC(=O)[C@@H](N)CC(C)C)[C@@H](C)CC)C(=O)NCC(=O)N[C@H](C(=O)N1CCC[C@H]1C(=O)N1CCC[C@@H]1C(=O)N[C@@H](CCC(=O)O)C(=O)N[C@H](C(=O)N1Cc2ccccc2C[C@H]1C(=O)N[C@@H](Cc1ccccc1)C(=O)N[C@@H](CC(N)=O)C(=O)N[C@@H](CCCCN)C(=O)N1CCC[C@H]1C(=O)N[C@@H](Cc1ccccc1)C(=O)N[C@H](C(=O)N[C@@H](Cc1ccccc1)C(=O)O)C(C)C)C(C)C)[C@@H](C)CC` [VIR-484, LEKIPIGIPpEV(L-Tic)FNKPFVF] (H-LEKIPIGIP[dP]EV[Tic]FNKPFVF-OH), for which the figures for the IC50 in the series with X4-tropic HIV-1 NL4-3 and with HIV-1 NL4-3 DTV were 100 nM and 339 nM, respectively. In addition, the half-life in [2] is 12.4 h; in series [3] it was 0.2 h; in [4], 3.6 h; in [5], 5 h.

In the case of `CC[C@H](C)[C@H](NC(=O)[C@H](C)NC(=O)[C@H](CCC(=O)O)NC(=O)[C@H](CC(C)C)NC)C(=O)N1CCC[C@H]1C(=O)N[C@@H](CCSC)C(=O)N[C@@H](CO)C(=O)N[C@H](C(=O)N1CCC[C@H]1C(=O)N1CCC[C@H]1C(=O)N[C@@H](CCC(=O)O)C(=O)N[C@@H](Cc1ccccc1)C(=O)N[C@@H](CC(C)C)C(=O)N[C@@H](Cc1ccccc1)C(=O)NCC(=O)N[C@@H](CCCCN)C(=O)N1CCC[C@H]1C(=O)N[C@@H](Cc1ccccc1)C(=O)N[C@H](C(=O)N[C@@H](Cc1ccccc1)C(=O)O)C(C)C)[C@@H](C)CC` [VIR-512] (H-[NMeL]EAIPMSIPPEFLFGKPFVF-OH), the IC50 stood at 138 nM in the series on X4-tropic HIV-1 NL4-3 and 615 nM in the series on HIV-1 NL4-3 DTV. Also, the half-life in series [2] was 48.1 h; in series [3], above 6 h; in [4], 33.6 h; in series [5], 315 h.

In the case of `CC[C@H](C)[C@H](NC(=O)[C@H](C)NC(=O)[C@H](CCC(=O)O)NC(=O)[C@@H](N)CC(C)C)C(=O)N1CCC[C@H]1C(=O)N[C@@H](CCSC)C(=O)N[C@@H](CO)C(=O)N[C@H]1CSSC[C@@H](C(=O)N[C@@H](Cc2ccccc2)C(=O)NCC(=O)N[C@@H](CCCCN)C(=O)N2CCC[C@H]2C(=O)N[C@@H](Cc2ccccc2)C(=O)N[C@H](C(=O)N[C@@H](Cc2ccccc2)C(=O)O)C(C)C)NC(=O)[C@H](Cc2ccccc2)NC(=O)[C@H](CCC(=O)O)NC(=O)[C@@H]2CCCN2C(=O)[C@@H]2CCCN2C1=O` [VIR-568] (H-LEAIPMSCPPEFCFGKPFVF-OH; disulfide 8-13), the figures for the IC50 with X4-tropic HIV-1 NL4-3 and in the series on HIV-1 NL4-3 DTV were 367 nM and 552 nM, respectively. The half-life is 4 h in [2], 0.1 h in [3], 2.2 h in series [4] and 3.9 h in series [5].

For `CC[C@H](C)[C@H](NC(=O)[C@H](C)NC(=O)[C@H](CCC(=O)O)NC(=O)[C@@H](N)CC(C)C)C(=O)N1CCC[C@H]1C(=O)N[C@@H](CCSC)C(=O)N[C@@H](CO)C(=O)N[C@H](C(=O)N1CCC[C@H]1C(=O)N1CCC[C@H]1C(=O)N[C@@H](CCC(=O)O)C(=O)N[C@@H](Cc1ccccc1)C(=O)N[C@@H](CC(C)C)C(=O)N[C@@H](Cc1ccccc1)C(=O)NCC(=O)N[C@@H](CCCCN)C(=O)N1CCC[C@H]1C(=O)N[C@@H](Cc1ccccc1)C(=O)N[C@H](C(=O)N[C@@H](Cc1ccccc1)C(=O)NCCOCCOCC(=O)NCCOCCOCC(N)=O)C(C)C)[C@@H](C)CC` [VIR-580] (H-LEAIPMSIPPEFLFGKPFVF[AEEA][AEEA]-NH2), the values for the half-maximal inhibitory concentration (IC50) in the series on X4-tropic HIV-1 NL4-3 and in the series with HIV-1 NL4-3 DTV were 150 nM and 497 nM, respectively. Further, the half-life in series [2] is 42 h; in [3], 1.4 h; in [4], 10.2 h; in series [5], 38.9 h.

For H-LEAIPMSIPPEFLFGKPFVF-OH [VIR-175], the 50% inhibitory concentration (IC50) in the series with X4-tropic HIV-1 NL4-3 was determined as 225 nM; in the series on HIV-1 NL4-3 DTV, 300 nM. The half-life is 17.3 h in [2], 0.2 h in [3], 3 h in [4] and 5.3 h in [5]. Moreover, the “inhibition” value in [1] is “Dose dependent inhibition”.

In the case of “H-LEAIPMSIPPEVKFNKPFVF-OH [VIRIP, reference compound]”, the half-maximal inhibitory concentration (IC50) is 15000 nM in the series with X4-tropic HIV-1 NL4-3; 22000 nM and 22200 nM in the series on HIV-1 NL4-3 DTV. Moreover, the half-life in [2] was 35.9 h; in [3], 1.7 h; in [4], 5.1 h; in series [5], 53.7 h. Also, the “inhibition” value in series [1] is recorded as “Dose dependent inhibition”.

Compound VIR-576 (peptide) returned an IC50 DTV (HIV-1 infection of P4-CCR5 cells) in series [6] of 296 nM. For the same compound, in series [7], the IC50 NL4-3 (HIV-1 infection of P4-CCR5 cells) was determined as 107 nM.

VIRIP (peptide) displayed an IC50 DTV (HIV-1 infection of P4-CCR5 cells) in series [6] of 22200 nM. For the same compound, the IC50 NL4-3 (HIV-1 infection of P4-CCR5 cells) in series [7] came to 15000 nM.
